# Source: ChEMBL document CHEMBL3351869, “Discovery of a new family of carbonic anhydrases in the malaria pathogen Plasmodium falciparum--the η-carbonic anhydrases” (Bioorg Med Chem Lett, 2014)
# Biological target: Carbonic anhydrase 1 (Homo sapiens, UniProt P00915)
# Sequence (P00915 whole entry): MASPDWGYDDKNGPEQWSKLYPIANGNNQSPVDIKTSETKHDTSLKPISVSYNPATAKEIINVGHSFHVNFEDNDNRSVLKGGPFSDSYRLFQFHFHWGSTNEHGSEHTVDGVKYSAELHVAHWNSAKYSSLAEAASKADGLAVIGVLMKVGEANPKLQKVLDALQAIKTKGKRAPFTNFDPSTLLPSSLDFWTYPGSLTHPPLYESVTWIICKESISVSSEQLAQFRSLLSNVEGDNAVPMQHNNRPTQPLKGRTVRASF
compound,measurement,value
O=[Se](=O)(O)O [SODIUM SELENATE],Ki,570 µM
